From US20230257396A1, “MACROCYCLES AND THEIR USE” (BLOSSOMHILL THERAPEUTICS, INC., priority 2020, published 2023)

What was measured:
Test in all cases: KINOMEscan kinase binding assay (Eurofins/DiscoveRx), % Ctrl
kinases [1] = target: T1, kinases (Homo sapiens, UniProt P10721, A829P)
T1 construct: purchased Eurofins/DiscoveRx; host or cells: E. coli BL21-derived host (T7 phage display) for most kinases; HEK-293 for the rest
Method in brief: (§1)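 Read-out is qPCR of kinase eluted from ligand-coated streptavidin beads after 1 h room-temperature competition with test compound. Values are % Ctrl at the tested concentration, lower meaning tighter binding.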

kinases [2] = target: T2, kinases (Homo sapiens, UniProt P36888, N841I)
T2 construct: purchased Eurofins/DiscoveRx; host or cells: E. coli BL21-derived host (T7 phage display) for most kinases; HEK-293 for the rest
T2 sequence (P36888 27-993 N841I): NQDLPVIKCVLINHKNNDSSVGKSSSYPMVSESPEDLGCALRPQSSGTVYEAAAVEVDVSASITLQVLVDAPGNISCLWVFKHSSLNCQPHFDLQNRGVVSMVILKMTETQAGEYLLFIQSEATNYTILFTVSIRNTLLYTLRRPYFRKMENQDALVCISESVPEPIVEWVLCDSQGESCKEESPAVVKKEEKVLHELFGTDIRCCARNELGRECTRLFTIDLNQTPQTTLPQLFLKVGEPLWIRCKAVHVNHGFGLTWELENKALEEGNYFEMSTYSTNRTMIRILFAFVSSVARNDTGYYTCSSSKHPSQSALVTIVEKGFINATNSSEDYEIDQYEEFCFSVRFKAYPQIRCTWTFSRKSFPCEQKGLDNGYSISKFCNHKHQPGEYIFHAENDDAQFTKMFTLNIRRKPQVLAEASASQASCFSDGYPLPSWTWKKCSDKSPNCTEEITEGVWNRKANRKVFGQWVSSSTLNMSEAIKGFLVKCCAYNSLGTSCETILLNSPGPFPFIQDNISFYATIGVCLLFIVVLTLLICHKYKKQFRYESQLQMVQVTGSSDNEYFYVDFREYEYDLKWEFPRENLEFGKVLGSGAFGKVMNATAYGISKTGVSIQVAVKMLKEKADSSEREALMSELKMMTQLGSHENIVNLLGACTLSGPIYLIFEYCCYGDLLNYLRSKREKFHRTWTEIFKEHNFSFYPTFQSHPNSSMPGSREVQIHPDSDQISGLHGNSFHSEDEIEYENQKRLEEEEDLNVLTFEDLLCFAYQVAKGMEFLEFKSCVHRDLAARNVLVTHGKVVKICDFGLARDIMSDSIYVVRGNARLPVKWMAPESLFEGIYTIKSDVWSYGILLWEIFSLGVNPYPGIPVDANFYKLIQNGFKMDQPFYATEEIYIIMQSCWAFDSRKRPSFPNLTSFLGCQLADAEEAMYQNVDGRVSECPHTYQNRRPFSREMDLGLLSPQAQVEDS
Method in brief: as §1

kinases [3] = target: T3, kinases (Homo sapiens, UniProt P07949, V804M)
T3 construct: purchased Eurofins/DiscoveRx; host or cells: E. coli BL21-derived host (T7 phage display) for most kinases; HEK-293 for the rest
T3 sequence (P07949 29-1114 V804M): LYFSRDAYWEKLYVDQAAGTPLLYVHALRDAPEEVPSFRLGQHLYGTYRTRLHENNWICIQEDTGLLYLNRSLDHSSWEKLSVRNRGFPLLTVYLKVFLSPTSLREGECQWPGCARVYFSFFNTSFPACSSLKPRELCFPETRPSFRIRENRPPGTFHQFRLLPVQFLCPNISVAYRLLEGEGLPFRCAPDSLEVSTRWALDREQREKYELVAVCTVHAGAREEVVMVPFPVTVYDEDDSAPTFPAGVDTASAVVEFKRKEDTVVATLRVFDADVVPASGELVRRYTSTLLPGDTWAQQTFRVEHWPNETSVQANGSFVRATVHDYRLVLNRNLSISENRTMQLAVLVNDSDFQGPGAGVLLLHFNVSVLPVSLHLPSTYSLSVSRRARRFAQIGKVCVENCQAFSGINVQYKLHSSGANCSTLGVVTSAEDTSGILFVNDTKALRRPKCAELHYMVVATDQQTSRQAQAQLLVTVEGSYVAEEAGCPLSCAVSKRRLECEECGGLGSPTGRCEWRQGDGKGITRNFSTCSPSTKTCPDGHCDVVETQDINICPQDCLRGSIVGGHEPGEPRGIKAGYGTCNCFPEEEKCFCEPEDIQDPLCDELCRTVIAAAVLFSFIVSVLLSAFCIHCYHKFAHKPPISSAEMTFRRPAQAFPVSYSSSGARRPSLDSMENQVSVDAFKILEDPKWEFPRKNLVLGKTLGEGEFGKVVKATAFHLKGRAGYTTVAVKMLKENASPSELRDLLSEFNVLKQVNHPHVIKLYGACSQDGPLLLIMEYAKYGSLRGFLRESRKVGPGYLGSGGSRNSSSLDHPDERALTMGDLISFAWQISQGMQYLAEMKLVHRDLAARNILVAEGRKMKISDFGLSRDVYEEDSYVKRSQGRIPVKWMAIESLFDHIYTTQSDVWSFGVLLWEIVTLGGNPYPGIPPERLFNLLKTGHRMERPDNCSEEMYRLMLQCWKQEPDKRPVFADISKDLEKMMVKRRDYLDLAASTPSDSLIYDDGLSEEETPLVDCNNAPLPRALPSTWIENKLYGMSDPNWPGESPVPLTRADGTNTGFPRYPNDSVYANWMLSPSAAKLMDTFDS
Method in brief: as §1

kinases [4] = target: T4, kinases (Homo sapiens, UniProt P00519, F317I)
T4 construct: purchased Eurofins/DiscoveRx; host or cells: E. coli BL21-derived host (T7 phage display) for most kinases; HEK-293 for the rest
T4 sequence (P00519 whole entry F317I): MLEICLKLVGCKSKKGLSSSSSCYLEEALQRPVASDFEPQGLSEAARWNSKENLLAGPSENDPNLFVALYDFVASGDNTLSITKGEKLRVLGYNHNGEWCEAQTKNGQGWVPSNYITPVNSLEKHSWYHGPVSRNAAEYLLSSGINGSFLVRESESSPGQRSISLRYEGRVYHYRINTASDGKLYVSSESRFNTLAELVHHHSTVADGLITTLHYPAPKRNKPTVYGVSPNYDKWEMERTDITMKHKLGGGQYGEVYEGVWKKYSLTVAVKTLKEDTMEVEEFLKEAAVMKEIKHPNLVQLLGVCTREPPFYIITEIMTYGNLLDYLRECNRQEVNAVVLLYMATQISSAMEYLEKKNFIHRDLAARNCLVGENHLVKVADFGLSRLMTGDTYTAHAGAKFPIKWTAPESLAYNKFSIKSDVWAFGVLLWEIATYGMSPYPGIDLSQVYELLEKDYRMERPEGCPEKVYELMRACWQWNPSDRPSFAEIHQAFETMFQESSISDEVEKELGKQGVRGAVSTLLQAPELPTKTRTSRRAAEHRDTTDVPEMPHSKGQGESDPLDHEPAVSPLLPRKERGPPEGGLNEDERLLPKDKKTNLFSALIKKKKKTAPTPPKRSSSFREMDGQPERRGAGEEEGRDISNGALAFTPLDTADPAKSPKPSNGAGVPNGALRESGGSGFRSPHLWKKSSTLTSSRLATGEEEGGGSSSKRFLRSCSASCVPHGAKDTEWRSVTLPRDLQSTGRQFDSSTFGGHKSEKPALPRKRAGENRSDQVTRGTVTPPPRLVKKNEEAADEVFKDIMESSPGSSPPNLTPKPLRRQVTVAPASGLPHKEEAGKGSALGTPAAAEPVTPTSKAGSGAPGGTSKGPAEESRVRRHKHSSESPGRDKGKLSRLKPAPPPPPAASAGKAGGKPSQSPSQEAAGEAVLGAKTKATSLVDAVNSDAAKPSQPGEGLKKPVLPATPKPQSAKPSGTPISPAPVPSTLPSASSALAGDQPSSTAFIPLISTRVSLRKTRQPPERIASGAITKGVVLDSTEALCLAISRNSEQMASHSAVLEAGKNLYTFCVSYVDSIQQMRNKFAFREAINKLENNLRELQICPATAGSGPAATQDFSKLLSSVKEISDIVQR
Method in brief: as §1

[5] = 1 μM; ABL1(F317I)-nonphosphorylated
[6] = 1 μM; ABL1(F317I)-phosphorylated
[7] = target ABL1(F317I)-nonphosphorylated; 1 μM
[8] = target ABL1(F317I)-phosphorylated; 1 μM

T1 sequence (P10721 26-976 A829P): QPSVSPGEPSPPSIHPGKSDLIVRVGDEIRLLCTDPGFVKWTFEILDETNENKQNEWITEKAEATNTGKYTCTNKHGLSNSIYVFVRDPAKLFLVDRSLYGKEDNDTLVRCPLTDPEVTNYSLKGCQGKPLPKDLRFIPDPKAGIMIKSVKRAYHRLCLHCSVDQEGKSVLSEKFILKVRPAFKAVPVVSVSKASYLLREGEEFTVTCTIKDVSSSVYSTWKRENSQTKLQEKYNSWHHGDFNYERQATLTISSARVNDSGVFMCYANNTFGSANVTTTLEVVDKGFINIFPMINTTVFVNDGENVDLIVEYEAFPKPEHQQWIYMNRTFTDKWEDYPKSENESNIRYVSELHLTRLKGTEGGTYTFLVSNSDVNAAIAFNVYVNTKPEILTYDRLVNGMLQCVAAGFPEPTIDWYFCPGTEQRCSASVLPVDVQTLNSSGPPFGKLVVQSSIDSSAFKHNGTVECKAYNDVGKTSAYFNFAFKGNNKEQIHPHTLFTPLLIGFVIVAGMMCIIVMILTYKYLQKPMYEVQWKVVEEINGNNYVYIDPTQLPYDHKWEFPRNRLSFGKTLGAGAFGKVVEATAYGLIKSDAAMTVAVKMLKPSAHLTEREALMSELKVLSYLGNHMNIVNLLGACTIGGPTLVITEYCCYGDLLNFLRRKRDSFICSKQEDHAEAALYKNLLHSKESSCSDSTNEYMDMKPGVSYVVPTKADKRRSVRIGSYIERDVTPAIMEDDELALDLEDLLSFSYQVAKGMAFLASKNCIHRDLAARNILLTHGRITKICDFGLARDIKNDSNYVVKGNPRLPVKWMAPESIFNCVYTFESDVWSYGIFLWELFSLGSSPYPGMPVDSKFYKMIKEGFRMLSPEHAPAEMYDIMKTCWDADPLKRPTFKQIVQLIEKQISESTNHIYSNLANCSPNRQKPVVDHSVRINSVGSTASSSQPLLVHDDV

Cc1cc2c([nH]1)/C=C1\C(=O)Nc3cnc(cc31)-c1cnn(C)c1COCCNC2=O [Ex.123, [3a(4)Z]-6,14-dimethyl-10,11,13,14-tetrahydro-2H-17,1-(azenometheno)pyrazolo[4,3-m]dipyrrolo[3,2-f:3′,4′-i][1,4]oxazacyclopentadecine-3,8(5H,9H)-dione]
% Ctrl, KIT(A829P) (kinases [1]; 1 μM; KIT(A829P)): 100 % Ctrl | % Ctrl, FLT3(N841I) (kinases [2]; 1 μM; FLT3(N841I)): 95 % Ctrl | % Ctrl, RET(V804M) (kinases [3]; 1 μM; RET(V804M)): 99 % Ctrl | % Ctrl, ABL1(F317I)-nonphosphorylated (kinases [4]; [5]): 100 % Ctrl | % Ctrl, ABL1(F317I)-phosphorylated (kinases [4]; [6]): 100 % Ctrl

Cc1cc2c([nH]1)/C=C1\C(=O)Nc3cnc(cc31)-c1cn[nH]c1CNCCN(C)C2=O [Ex. 55, [3a(4)Z]-6,9-dimethyl-9,10,11,12,13,14-hexahydro-17,1-(azenometheno)pyrazolo[4,3-m]dipyrrolo[3,2-f:3′,4′-i][1,4]diazacyclopentadecine-3,8(2,5H)-dione]
% Ctrl, KIT(A829P) (kinases [1]; target KIT(A829P); 1 μM): 39 % Ctrl | % Ctrl, FLT3(N841I) (kinases [2]; target FLT3(N841I); 1 μM): 0 % Ctrl | % Ctrl, RET(V804M) (kinases [3]; target RET(V804M); 1 μM): 0.3 % Ctrl | % Ctrl, ABL1(F317I)-nonphosphorylated (kinases [4]; [7]): 66 % Ctrl | % Ctrl, ABL1(F317I)-phosphorylated (kinases [4]; [8]): 41 % Ctrl

Cc1cc2c([nH]1)/C=C1\C(=O)Nc3ccc(cc31)OCCOCCNC2=O [Ex. 129, [16a(17)Z]-2-methyl-6,7,9,10-tetrahydro-1H-12,14-(ethanediylidene)dipyrrolo[3,2-i:3′,4′-l][1,4,7]dioxazacyclopentadecine-4,16(5H,15H)-dione]
% Ctrl, KIT(A829P) (kinases [1]; 1 μM; KIT(A829P)): 100 % Ctrl | % Ctrl, FLT3(N841I) (kinases [2]; 1 μM; FLT3(N841I)): 68 % Ctrl | % Ctrl, RET(V804M) (kinases [3]; 1 μM; RET(V804M)): 94 % Ctrl | % Ctrl, ABL1(F317I)-nonphosphorylated (kinases [4]; [5]): 94 % Ctrl | % Ctrl, ABL1(F317I)-phosphorylated (kinases [4]; [6]): 100 % Ctrl

Cc1cc2c([nH]1)/C=C1\C(=O)Nc3ccc(cc31)OCCOCCN(C)C2=O [Ex.91, [16a(17)Z]-2,5-dimethyl-6,7,9,10-tetrahydro-1H-12,14-(ethanediylidene)dipyrrolo[3,2-i:3′,4′-l][1,4,7]dioxazacyclopentadecine-4,16(5H,15H)-dione]
% Ctrl, KIT(A829P) (kinases [1]; 1 μM; KIT(A829P)): 32 % Ctrl | % Ctrl, FLT3(N841I) (kinases [2]; 1 μM; FLT3(N841I)): 0 % Ctrl | % Ctrl, RET(V804M) (kinases [3]; 1 μM; RET(V804M)): 4 % Ctrl | % Ctrl, ABL1(F317I)-nonphosphorylated (kinases [4]; [5]): 20 % Ctrl | % Ctrl, ABL1(F317I)-phosphorylated (kinases [4]; [6]): 39 % Ctrl

CNC(=O)[C@H]1CN(C)C(=O)c2cc(C)[nH]c2/C=C2\C(=O)Nc3cc(Cl)c(cc32)OCCO1 [Ex. 135, [7R,16a(17)Z]-19-chloro-N,2,5-trimethyl-4,16-dioxo-4,5,6,7,9,10,15,16-octahydro-1H-12,14-(ethanediylidene)dipyrrolo[3,2-i:3′,4′-l][1,4,7]dioxazacyclopentadecine-7-carboxamide]
% Ctrl, KIT(A829P) (kinases [1]; 1 μM; KIT(A829P)): 75 % Ctrl | % Ctrl, FLT3(N841I) (kinases [2]; 1 μM; FLT3(N841I)): 41 % Ctrl | % Ctrl, RET(V804M) (kinases [3]; 1 μM; RET(V804M)): 77 % Ctrl | % Ctrl, ABL1(F317I)-nonphosphorylated (kinases [4]; [5]): 96 % Ctrl | % Ctrl, ABL1(F317I)-phosphorylated (kinases [4]; [6]): 84 % Ctrl

CN1CCOc2cc3c(cc2Cl)NC(=O)/C3=C\c2[nH]ccc2C(=O)N(C)CC1 [Ex. 164, [16a(17)Z]-19-chloro-2,5,8-trimethyl-5,6,7,8,9,10-hexahydro-12,14-(ethanediylidene)dipyrrolo[3,2-i:3′,4′-l][1,4,7]oxadiazacyclopentadecine-4,16(1H,15H)-dione]
% Ctrl, KIT(A829P) (kinases [1]; 1 μM; target KIT(A829P)): 33 % Ctrl | % Ctrl, FLT3(N841I) (kinases [2]; 1 μM; target FLT3(N841I)): 0 % Ctrl | % Ctrl, RET(V804M) (kinases [3]; 1 μM; target RET(V804M)): 2.1 % Ctrl | % Ctrl, ABL1(F317I)-nonphosphorylated (kinases [4]; 1 μM; target ABL1(F317I)-nonphosphorylated): 5.7 % Ctrl | % Ctrl, ABL1(F317I)-phosphorylated (kinases [4]; 1 μM; target ABL1(F317I)-phosphorylated): 6.7 % Ctrl

Cc1cc2c([nH]1)/C=C1\C(=O)Nc3ccc(cc31)-c1ccnn1CCOCCN(C)C2=O [Ex. 41, [19a(20)Z]-2,5-dimethyl-6,7,9,10-tetrahydro-1H-15,17-(ethanediylidene)pyrazolo[1,5-d]dipyrrolo[3,4-h:2′,3′-k][1,4,14]oxadiazacyclohexadecine-4,19(5H,18H)-dione]
% Ctrl, KIT(A829P) (kinases [1]; 1 μM; KIT(A829P)): 45 % Ctrl | % Ctrl, FLT3(N841I) (kinases [2]; 1 μM; FLT3(N841I)): 0 % Ctrl | % Ctrl, RET(V804M) (kinases [3]; 1 μM; RET(V804M)): 19 % Ctrl | % Ctrl, ABL1(F317I)-nonphosphorylated (kinases [4]; [5]): 54 % Ctrl | % Ctrl, ABL1(F317I)-phosphorylated (kinases [4]; [6]): 75 % Ctrl

Cc1cc2c([nH]1)/C=C1\C(=O)Nc3ccc(cc31)-c1c(noc1C)COCCN(C)C2=O [Ex. 128, [3a(4)Z]-6,9,16-trimethyl-1,11-dihydro-2H,13H-1,17-(ethanediylidene)[1,4]oxazolo[4,3-m]dipyrrolo[3,2-f:3′,4′-i][1,4]oxazacyclopentadecine-3,8(5H,9H)-dione]
% Ctrl, KIT(A829P) (kinases [1]; 1 μM; KIT(A829P)): 86 % Ctrl | % Ctrl, FLT3(N841I) (kinases [2]; 1 μM; FLT3(N841I)): 36 % Ctrl | % Ctrl, RET(V804M) (kinases [3]; 1 μM; RET(V804M)): 55 % Ctrl | % Ctrl, ABL1(F317I)-nonphosphorylated (kinases [4]; [5]): 100 % Ctrl | % Ctrl, ABL1(F317I)-phosphorylated (kinases [4]; [6]): 55 % Ctrl

Cc1cc2c([nH]1)/C=C1\C(=O)Nc3ccc(cc31)-c1c(noc1C)CNCCN(C)C2=O [Ex. 139, [3a(4)Z]-6,9,16-trimethyl-10,11,12,13-tetrahydro-2H-1,17-(ethanediylidene)[1,2]oxazolo[4,3-m]dipyrrolo[3,2-f:3′,4′-i][1,4]diazacyclopentadecine-3,8(5H,9H)-dione]
% Ctrl, KIT(A829P) (kinases [1]; target KIT(A829P); 1 μM): 74 % Ctrl | % Ctrl, FLT3(N841I) (kinases [2]; target FLT3(N841I); 1 μM): 12 % Ctrl | % Ctrl, RET(V804M) (kinases [3]; target RET(V804M); 1 μM): 23 % Ctrl | % Ctrl, ABL1(F317I)-nonphosphorylated (kinases [4]; [7]): 72 % Ctrl | % Ctrl, ABL1(F317I)-phosphorylated (kinases [4]; [8]): 60 % Ctrl

Cc1cc2c([nH]1)/C=C1\C(=O)Nc3ccc(cc31)CN(C)C(=O)COCCNC2=O [Ex.111, [17a(18)Z]-2,11-dimethyl-6,7,11,12-tetrahydro-1H-13,15-(ethanediylidene)dipyrrolo[3,2-f:3′,4′-i][1,4,14]oxadiazacyclohexadecine-4,10,17(5H,9H,16H)-trione]
% Ctrl, KIT(A829P) (kinases [1]; 1 μM; KIT(A829P)): 100 % Ctrl | % Ctrl, FLT3(N841I) (kinases [2]; 1 μM; FLT3(N841I)): 14 % Ctrl | % Ctrl, RET(V804M) (kinases [3]; 1 μM; RET(V804M)): 51 % Ctrl | % Ctrl, ABL1(F317I)-nonphosphorylated (kinases [4]; [5]): 89 % Ctrl | % Ctrl, ABL1(F317I)-phosphorylated (kinases [4]; [6]): 100 % Ctrl

Cc1cc2c([nH]1)/C=C1\C(=O)Nc3cc(Cl)c(cc31)OCCOCCN(C)C2=O [Ex. 131, [16a(17)Z]-19-chloro-2,5-dimethyl-6,7,9,10-tetrahydro-1H-12,14-(ethanediylidene)dipyrrolo[3,2-i:3′,4′-l][1,4,7]dioxazacyclopentadecine-4,16(5H,15H)-dione]
% Ctrl, KIT(A829P) (kinases [1]; 1 μM; KIT(A829P)): 4 % Ctrl | % Ctrl, FLT3(N841I) (kinases [2]; 1 μM; FLT3(N841I)): 0 % Ctrl | % Ctrl, RET(V804M) (kinases [3]; 1 μM; RET(V804M)): 0.15 % Ctrl | % Ctrl, ABL1(F317I)-nonphosphorylated (kinases [4]; [5]): 0 % Ctrl | % Ctrl, ABL1(F317I)-phosphorylated (kinases [4]; [6]): 3.5 % Ctrl

CN1CCSCCOc2cc3c(cc2Cl)NC(=O)/C3=C\c2[nH]ccc2C1=O [Ex. 153]
% Ctrl, KIT(A829P) (kinases [1]; target KIT(A829P); 1 μM): 43 % Ctrl | % Ctrl, FLT3(N841I) (kinases [2]; target FLT3(N841I); 1 μM): 0 % Ctrl | % Ctrl, RET(V804M) (kinases [3]; target RET(V804M); 1 μM): 41 % Ctrl | % Ctrl, ABL1(F317I)-nonphosphorylated (kinases [4]; [7]): 20 % Ctrl | % Ctrl, ABL1(F317I)-phosphorylated (kinases [4]; [8]): 37 % Ctrl

CN1CCOCCOc2cc3c(cc2Cl)NC(=O)/C3=C\c2[nH]ccc2C1=O [Ex. 143, [16a(17)Z]-19-chloro-2,5-dimethyl-6,7,9,10-tetrahydro-1H-12,14-(ethanediylidene)dipyrrolo[3,2-i:3′,4′-l][1,4,7]oxathiazacyclopentadecine-4,16(5H,15H)-dione]
% Ctrl, KIT(A829P) (kinases [1]; target KIT(A829P); 1 μM): 51 % Ctrl | % Ctrl, FLT3(N841I) (kinases [2]; target FLT3(N841I); 1 μM): 5.5 % Ctrl | % Ctrl, RET(V804M) (kinases [3]; target RET(V804M); 1 μM): 31 % Ctrl | % Ctrl, ABL1(F317I)-nonphosphorylated (kinases [4]; [7]): 46 % Ctrl | % Ctrl, ABL1(F317I)-phosphorylated (kinases [4]; [8]): 26 % Ctrl
